This note sets out measurements from ChEMBL document CHEMBL1240326, “ATP non-competitive IGF-1 receptor kinase inhibitors as lead anti-neoplastic and anti-papilloma agents” (Eur J Pharmacol, 2007).

Experiment [1] concerns the target Proto-oncogene tyrosine-protein kinase Src (Homo sapiens, UniProt P12931). As to the kind of experiment: Inhibition of human GST-fused Src-mediated Poly Glu4Tyr phosphorylation by ELISA. A general note: An ELISA detects its analyte on a solid surface through an enzyme-linked reagent.
Experiment [2] in a line: cells. The conditions noted are these: Homo sapiens, HF1, 48 h.
Description: Growth inhibition of human HF1 cells transfected with HPV16 after 48 hrs by micro culture methylene blue assay
For experiment [3], the system named is Keratinocyte. Kind of experiment: cells. The conditions noted are these: Homo sapiens, 72 h.
Description: Growth inhibition of human primary keratinocytes after 72 hrs by micro culture methylene blue assay

Sequence of Proto-oncogene tyrosine-protein kinase Src (P12931 2-536 limits assumed): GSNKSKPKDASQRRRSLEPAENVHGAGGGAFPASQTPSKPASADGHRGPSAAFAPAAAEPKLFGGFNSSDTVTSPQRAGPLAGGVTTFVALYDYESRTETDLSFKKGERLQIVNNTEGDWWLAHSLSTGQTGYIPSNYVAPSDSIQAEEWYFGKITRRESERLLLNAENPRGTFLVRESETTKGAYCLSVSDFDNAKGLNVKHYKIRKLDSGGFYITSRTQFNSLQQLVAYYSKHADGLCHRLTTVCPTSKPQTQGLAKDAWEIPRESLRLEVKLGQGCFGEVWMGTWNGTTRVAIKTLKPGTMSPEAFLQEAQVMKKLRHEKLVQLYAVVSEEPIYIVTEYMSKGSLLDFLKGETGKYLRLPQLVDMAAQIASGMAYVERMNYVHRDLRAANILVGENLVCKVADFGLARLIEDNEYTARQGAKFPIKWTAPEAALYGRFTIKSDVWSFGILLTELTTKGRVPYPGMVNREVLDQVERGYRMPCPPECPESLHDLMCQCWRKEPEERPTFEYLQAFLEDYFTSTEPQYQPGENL

As for `Oc1ccc(CN(Cc2ccc(O)c(O)c2)c2ccc3c(c2)OCO3)cc1O`, the 50% inhibitory concentration (IC50) in experiment [1] was 0.83 µM; in experiment [2], 106 µM; in experiment [3], 18 µM.
The matching figures for `Oc1ccc(CNc2ccc3c(c2)OCO3)cc1O`: 1.86 µM, 170 µM and 73 µM.
The molecule `N#C/C(=C\c1ccc(O)c(O)c1)C(=O)c1ccc(O)c(O)c1` had an IC50 in experiment [2] of 390 µM.

The term IC50 denotes the midpoint of a concentration-inhibition curve.
